Values quoted from earlier work as cited in EP4817601A1, “NANOPARTICLES COMPRISING SIROLIMUS AND ALBUMIN, PHARMACEUTICAL COMPOSITION FOR SUBCUTANEOUS ADMINISTRATION, COMPRISING SAME, AND PREPARATION METHOD THEREFOR” (SNBioscience Inc., priority 2023, dated 2025).

Conditions: poorly soluble drug; background statement

bioavailability (BA): 14%
SMILES: CO[C@H]1C[C@@H]2CC[C@@H](C)[C@@](O)(O2)C(=O)C(=O)N2CCCC[C@H]2C(=O)O[C@H]([C@H](C)C[C@@H]2CC[C@@H](O)[C@H](OC)C2)CC(=O)[C@H](C)/C=C(\C)[C@@H](O)[C@@H](OC)C(=O)[C@H](C)C[C@H](C)/C=C/C=C/C=C/1C [Sirolimus]
